Test results taken from publication PMC5830399, “Aggregating sequences that occur in many proteins constitute weak spots of bacterial proteostasis” (Nature Communications, 2018).
In brackets after ≈: the same amount, converted by molar mass. Peptide text beside a SMILES is read from it. * marks the point of attachment. FITC = O=C1OC2(c3ccc(O)cc3Oc3cc(O)ccc32)c2ccc(NC(=S)*)cc21

Columns and labels:
Type in all cases: cell-based, Escherichia coli
[1] = tested on: E. coli O157:H7; test: Flow cytometry of bacteria treated with FITC peptides (uptake) and propidium iodide; conditions: for cells positive for FITC (peptide uptake): E. coli O157:H7, FITC-labeled peptide at MIC, flow cytometry; for PI-positive cells (membrane permeabilization): E. coli O157:H7, peptide at MIC, N = 4
Experimental: Using a double staining technique with propidium iodide (PI) and FITC peptides, killing rate and peptide uptake were evaluated in a two-dimensional analysis. Briefly, end-exponential growth phase E. coli O157 cells (10^8 CFU/mL) were washed with PBS and treated with peptides (P2 or Pro2/ FITC labeled) at MIC value for different time periods. Treated bacteria were again washed with PBS buffer three times. One microliter of PI (Invitrogen) was added to the bacteria, and after incubation for 5 min, the mixture was aliquoted (500 µL) into FACS tubes. To correlate the activity of the peptides with cell death, the fluorescence intensity was measured in two channels using the Gallios^TM Flow Cytometer, PI: excitation 536 nm and emission 617 nm, FITC: excitation 490 nm and emission 525 nm. Heated bacteria at 90 °C for 10 min were used as PI-positive control.

[2] = tested on: E. coli O157; conditions: HPLC-purified peptide
Text: In order to investigate whether APR redundancy does result in proteostatic collapse, we selected resynthesized and high-performance liquid chromatography (HPLC)-purified four positive peptides from the screen, P2, P5, P14, and P105, as well as three negative peptides, P3, P4, and P11, and confirmed their MIC and minimum bactericidal concentration (MBC) values (Table 1). […] These IBs, which are also called large polar aggregates, could be stained with pentameric formyl thiophene acetic acid (pFTAA, Fig. 1j and supplementary Fig. 3), an extensively characterized amyloid-specific dye[20]–[22], which specifically binds to amyloid-like aggregates as well as disease-associated protein IBs[22]. This IB-staining pattern could be observed for all bactericidal peptides, but not for any of the other peptides, although some other pFTAA-positive structures could be discerned (Supplementary Fig. 3). We confirmed the cross-β-structure content of IB using thioflavin-T staining and correlative atomic force microscopy nanoimaging and Fourier transform infrared spectroscopy (Supplementary Note 2 and Supplementary Fig. 4).

[3] = tested on: E. coli O157:H7; conditions: E. coli O157(:H7); HPLC-purified peptide; broth microdilution (EUCAST), LB, overnight 37 °C, OD 590 nm
Experimental: The MICs of active peptides were determined via the Broth microdilution assay according to the EUCAST guideline, which was performed in 96-well polystyrene flat bottom microtiter plates (BD Biosciences). Briefly, a single colony was inoculated into 5 mL LB medium and grown to the end-exponential growth phase in a shaking incubator at 37 °C. Cultures were subsequently diluted to an OD600 (optical density) of 0.002 ([…]) in fresh LB medium. One hundred microliters of LB medium with different concentration of peptides ranging from 100 to 0.75 µg/mL were serially diluted to the sterile 96-well plate (at least three wells in each plate). Afterwards, 100 µL of the diluted bacteria were pipetted into 96-well plates containing different concentration of peptides. In each plate, the grown bacteria with the maximum concentration of carrier and medium were considered as positive and negative controls, respectively. Thereafter, 96-well plates were statically incubated overnight at 37 °C to allow bacterial growth. OD was measured at 590 nm for 1 s using a multipurpose ultraviolet–visible plate reader, and the absorbance of the growth bacteria was measured using a Perkin Elmer spectrophotometer (1420 Multilabel Counter Victor 3).

Compound	cells positive for FITC (peptide uptake) ([1]; after 15 min, N = 4, mean and s.d.) [%]	cells positive for FITC (peptide uptake) ([1]; after 1 h and beyond) [%]	PI-positive cells (membrane permeabilization) ([1]; after 15 min) [%]	PI-positive cells (membrane permeabilization) ([1]; after 3 h) [%]	MBC [2] [µg/mL]	MIC [3] [µg/mL]
CC(C)C[C@H](NC(=O)CNC(=O)[C@H](CCCNC(=N)N)NC(=O)[C@@H]1CCCN1C(=O)[C@H](CCCNC(=N)N)NC(=O)[C@H](CCCNC(=N)N)NC(=O)[C@@H](NC(=O)[C@H](CC(C)C)NC(=O)[C@H](C)NC(=O)[C@H](CC(C)C)NC(=O)CNC(=O)[C@H](CC(C)C)NC(=O)CNC(=O)[C@H](CCCNC(=N)N)NC(=S)Nc1ccc2c(c1)C(=O)OC21c2ccc(O)cc2Oc2cc(O)ccc21)C(C)C)C(=O)NCC(=O)N[C@@H](CC(C)C)C(=O)N[C@@H](C)C(=O)N[C@@H](CC(C)C)C(=O)N[C@H](C(=O)N[C@@H](CCCNC(=N)N)C(=O)N[C@@H](CCCNC(=N)N)C(=O)O)C(C)C [FITC-P2] ({FITC}-RGLGLALVRRPRGLGLALVRR-OH; N-terminus and C-terminus assumed)	97.7 ± 2.9	~100	2.1 ± 1.3	85 ± 13.2	–	–
CC(C)C[C@H](NC(=O)CNC(=O)[C@H](CCCNC(=N)N)NC(=O)[C@@H]1CCCN1C(=O)[C@H](CCCNC(=N)N)NC(=O)[C@H](CCCNC(=N)N)NC(=O)[C@@H]1CCCN1C(=O)[C@H](CC(C)C)NC(=O)[C@H](C)NC(=O)[C@@H]1CCCN1C(=O)CNC(=O)[C@H](CC(C)C)NC(=O)CNC(=O)[C@@H](N)CCCNC(=N)N)C(=O)NCC(=O)N1CCC[C@H]1C(=O)N[C@@H](C)C(=O)N[C@@H](CC(C)C)C(=O)N1CCC[C@H]1C(=O)N[C@@H](CCCNC(=N)N)C(=O)N[C@@H](CCCNC(=N)N)C(=O)O [P2Pro] (H-RGLGPALPRRPRGLGPALPRR-OH)	–	–	–	–	>100	–
CC(C)C[C@H](NC(=O)[C@H](C)NC(=O)[C@H](CCCNC(=N)N)NC(=O)[C@@H]1CCCN1C(=O)[C@H](CCCNC(=N)N)NC(=O)[C@H](CCCNC(=N)N)NC(=O)[C@H](CC(C)C)NC(=O)[C@H](CC(C)C)NC(=O)[C@@H](NC(=O)[C@@H](NC(=O)[C@H](CC(C)C)NC(=O)[C@H](CC(C)C)NC(=O)[C@H](C)NC(=O)[C@H](CCCNC(=N)N)NC(=O)[C@@H](N)CCCNC(=N)N)[C@@H](C)O)[C@@H](C)O)C(=O)N[C@@H](CC(C)C)C(=O)N[C@H](C(=O)N[C@H](C(=O)N[C@@H](CC(C)C)C(=O)N[C@@H](CC(C)C)C(=O)N[C@@H](CCCNC(=N)N)C(=O)N[C@@H](CCCNC(=N)N)C(=O)O)[C@@H](C)O)[C@@H](C)O [P5R] (H-RRALLTTLLRRPRALLTTLLRR-OH)	–	–	–	–	12 (≈ 4.51 µM)	12 (≈ 4.51 µM)
CC(C)C[C@H](NC(=O)[C@H](C)NC(=O)[C@H](CCCNC(=N)N)NC(=O)[C@@H]1CCCN1C(=O)[C@H](CCCNC(=N)N)NC(=O)[C@H](CCCNC(=N)N)NC(=O)[C@H](CC(C)C)NC(=O)[C@H](CC(C)C)NC(=O)[C@@H](NC(=O)[C@@H](NC(=O)[C@H](CC(C)C)NC(=O)[C@H](CC(C)C)NC(=O)[C@H](C)NC(=O)[C@@H](N)CCCNC(=N)N)[C@@H](C)O)[C@@H](C)O)C(=O)N[C@@H](CC(C)C)C(=O)N[C@H](C(=O)N[C@H](C(=O)N[C@@H](CC(C)C)C(=O)N[C@@H](CC(C)C)C(=O)N[C@@H](CCCNC(=N)N)C(=O)N[C@@H](CCCNC(=N)N)C(=O)O)[C@@H](C)O)[C@@H](C)O [P5] (H-RALLTTLLRRPRALLTTLLRR-OH)	–	–	–	–	6 (≈ 2.4 µM)	6 (≈ 2.4 µM)
CC(C)C[C@H](NC(=O)CNC(=O)[C@H](CCCNC(=N)N)NC(=O)[C@@H]1CCCN1C(=O)[C@H](CCCNC(=N)N)NC(=O)[C@H](CCCNC(=N)N)NC(=O)[C@H](C)NC(=O)[C@H](CC(C)C)NC(=O)[C@H](CC(C)C)NC(=O)[C@H](C)NC(=O)[C@H](CC(C)C)NC(=O)[C@H](CC(C)C)NC(=O)CNC(=O)[C@@H](N)CCCNC(=N)N)C(=O)N[C@@H](CC(C)C)C(=O)N[C@@H](C)C(=O)N[C@@H](CC(C)C)C(=O)N[C@@H](CC(C)C)C(=O)N[C@@H](C)C(=O)N[C@@H](CCCNC(=N)N)C(=O)N[C@@H](CCCNC(=N)N)C(=O)O [P14] (H-RGLLALLARRPRGLLALLARR-OH)	–	–	–	–	6 (≈ 2.55 µM)	6 (≈ 2.55 µM)
CC(C)C[C@H](NC(=O)[C@H](C)NC(=O)[C@@H](N)CCCNC(=N)N)C(=O)N[C@@H](CC(C)C)C(=O)N[C@@H](CCCNC(=N)N)C(=O)N[C@H](C(=O)N[C@@H](CC(C)C)C(=O)N[C@@H](CC(C)C)C(=O)N[C@@H](CCCNC(=N)N)C(=O)N[C@@H](CCCNC(=N)N)C(=O)N1CCC[C@H]1C(=O)N[C@@H](CCCNC(=N)N)C(=O)N[C@@H](C)C(=O)N[C@@H](CC(C)C)C(=O)N[C@@H](CC(C)C)C(=O)N[C@H](C(=O)N[C@H](C(=O)N[C@@H](CC(C)C)C(=O)N[C@@H](CC(C)C)C(=O)N[C@@H](CCCNC(=N)N)C(=O)N[C@@H](CCCNC(=N)N)C(=O)O)[C@@H](C)O)[C@@H](C)O)[C@@H](C)O [P105] (H-RALLRTLLRRPRALLTTLLRR-OH)	–	–	–	–	12 (≈ 4.69 µM)	12 (≈ 4.69 µM)
